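Five concentrations, 48 hours, 96-well plates. GI50 = concentration required for 50% inhibition of growth.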 Activity calls are given as the source filed them. No stated cut-off is given here; in the data, active = GI50 up to about 1.1 µM and inactive = higher.
What was measured:
Assay in all cases: NCI tumour cell line growth inhibition, 48 h
KM-20L2 = tested on: KM-20L2
RXF 393 = tested on: RXF 393
OVCAR-4 = tested on: OVCAR-4
CAKI-1 = tested on: CAKI-1
KM12 = tested on: KM12
ACHN = tested on: ACHN
Malme-3M = tested on: Malme-3M
TK-10 = tested on: TK-10
SW-620 = tested on: SW-620
SF-539 = tested on: SF-539
IGROV-1 = tested on: IGROV-1
HCT-116 = tested on: HCT-116
K562 = tested on: K562
UO-31 = tested on: UO-31
OVCAR-3 = tested on: OVCAR-3
MOLT-4 = tested on: MOLT-4
Hs-578T = tested on: Hs-578T
BT-549 = tested on: BT-549
T47D = tested on: T47D
MDA-MB-435 = tested on: MDA-MB-435

SMILES | GI50 (KM-20L2) | GI50 (RXF 393) | GI50 (OVCAR-4) | GI50 (CAKI-1) | GI50 (KM12) | GI50 (ACHN) | GI50 (Malme-3M) | GI50 (TK-10) | GI50 (SW-620) | GI50 (SF-539) | GI50 (IGROV-1) | GI50 (HCT-116) | GI50 (K562) | GI50 (UO-31) | GI50 (OVCAR-3) | GI50 (MOLT-4) | GI50 (Hs-578T) | GI50 (BT-549) | GI50 (T47D) | GI50 (MDA-MB-435)
O=C(N/C(=C\c1ccc2c(c1)OCO2)c1nc2ccccc2[nH]1)c1ccccc1 | 33.7 µM (inactive) | 24.7 µM (inactive) | 19.7 µM (inactive) | 33.6 µM (inactive) | 32.7 µM (inactive) | 33.3 µM (inactive) | 34.2 µM (inactive) | 29.2 µM (inactive) | 33.6 µM (inactive) | 24.9 µM (inactive) | 27.7 µM (inactive) | 31.3 µM (inactive) | 24.3 µM (inactive) | 24.6 µM (inactive) | 24.7 µM (inactive) | 20.2 µM (inactive) | – | – | – | –
COc1c(OC(C)=O)c(OC(C)=O)cc2c1-c1ccc(OC)c(=O)cc1C(NC(C)=O)CC2 (centres undefined) | 0.0222 µM (active) | < 0.01 µM (active) | 31.9 µM (inactive) | 0.054 µM (active) | 0.0154 µM (active) | 0.439 µM (active) | < 0.01 µM (active) | 2.7 µM (inactive) | < 0.0125 µM (active) | < 0.0122 µM (active) | 0.0254 µM (active) | 0.0215 µM (active) | < 0.0123 µM (active) | 4.86 µM (inactive) | 0.0138 µM (active) | 0.0155 µM (active) | < 0.01 µM (active) | > 100 µM (inactive) | > 100 µM (inactive) | < 0.01 µM (active)
O=c1[nH]cc(COCC(O)CO)c(=O)[nH]1 (centres undefined) | > 100 µM (inactive) | > 100 µM (inactive) | > 100 µM (inactive) | > 100 µM (inactive) | > 100 µM (inactive) | > 100 µM (inactive) | > 100 µM (inactive) | > 100 µM (inactive) | > 100 µM (inactive) | > 100 µM (inactive) | > 100 µM (inactive) | > 100 µM (inactive) | > 100 µM (inactive) | > 100 µM (inactive) | > 100 µM (inactive) | > 100 µM (inactive) | – | – | – | –
COc1ccccc1NC(=O)C1=C(C)NC(C)=C(C(=O)Nc2ccccc2OC)C1c1ccc([N+](=O)[O-])cc1 | > 100 µM (inactive) | 60.4 µM (inactive) | 56.2 µM (inactive) | 21.7 µM (inactive) | 51.6 µM (inactive) | 52.8 µM (inactive) | > 100 µM (inactive) | 74.5 µM (inactive) | 93.1 µM (inactive) | > 100 µM (inactive) | > 100 µM (inactive) | 60.5 µM (inactive) | 49.3 µM (inactive) | – | > 100 µM (inactive) | 7.23 µM (inactive) | – | – | – | –
Clc1c(Cl)c2c(Cl)c(Cl)c1C[PH](c1ccccc1)(c1ccccc1)CC[PH](c1ccccc1)(c1ccccc1)Cc1c(Cl)c(Cl)c(c(Cl)c1Cl)C[PH](c1ccccc1)(c1ccccc1)CC[PH](c1ccccc1)(c1ccccc1)C2 | 2.65 µM (inactive) | 2.49 µM (inactive) | 1.11 µM (active) | 7.06 µM (inactive) | 2.34 µM (inactive) | 4.69 µM (inactive) | 2.38 µM (inactive) | 3.18 µM (inactive) | 3.31 µM (inactive) | 3.68 µM (inactive) | 2.86 µM (inactive) | 1.79 µM (inactive) | 2.09 µM (inactive) | 6.49 µM (inactive) | 2.66 µM (inactive) | 3.27 µM (inactive) | – | – | – | –
Cc1c2ccnc(C(N)=O)c2c(C)c2c1[nH]c1ccccc12 | 6.62 µM (inactive) | 4.19 µM (inactive) | 9.31 µM (inactive) | 3.83 µM (inactive) | 6.07 µM (inactive) | 2.51 µM (inactive) | 6.15 µM (inactive) | 5.55 µM (inactive) | 3.19 µM (inactive) | 6.76 µM (inactive) | 9.2 µM (inactive) | 2.4 µM (inactive) | 11 µM (inactive) | 6.43 µM (inactive) | 9.08 µM (inactive) | 2.72 µM (inactive) | – | – | – | –
O=C1CC2CCN(C(=O)c3ccccc3)CC2CCN1.O=C1CCC2CC(C(=O)c3ccccc3)CCC2CN1 (centres undefined) | > 100 µM (inactive) | > 100 µM (inactive) | > 100 µM (inactive) | > 100 µM (inactive) | > 100 µM (inactive) | > 100 µM (inactive) | > 100 µM (inactive) | – | > 100 µM (inactive) | > 100 µM (inactive) | > 100 µM (inactive) | > 100 µM (inactive) | > 100 µM (inactive) | > 100 µM (inactive) | > 100 µM (inactive) | > 100 µM (inactive) | – | – | – | –
N#CCC(=O)N/N=C(/C(=O)Nc1ccccc1)C1C(=O)N(c2ccccc2)N=C1N (centres undefined) | > 100 µM (inactive) | > 100 µM (inactive) | > 100 µM (inactive) | > 100 µM (inactive) | > 100 µM (inactive) | > 100 µM (inactive) | > 100 µM (inactive) | > 100 µM (inactive) | > 100 µM (inactive) | > 100 µM (inactive) | > 100 µM (inactive) | > 100 µM (inactive) | > 100 µM (inactive) | > 100 µM (inactive) | > 100 µM (inactive) | > 100 µM (inactive) | – | – | – | –
Cc1nn(-c2ccccc2)c2nc(N3CCOCC3)nnc12 | > 100 µM (inactive) | > 100 µM (inactive) | 34.7 µM (inactive) | 39.6 µM (inactive) | > 100 µM (inactive) | 71.9 µM (inactive) | 64 µM (inactive) | > 100 µM (inactive) | > 100 µM (inactive) | 24.4 µM (inactive) | > 100 µM (inactive) | > 100 µM (inactive) | > 100 µM (inactive) | 28.6 µM (inactive) | 88.7 µM (inactive) | 40.6 µM (inactive) | – | – | – | –
CCOC(=O)c1s/c(=N\Nc2nc3ccccc3cc2C2OCCO2)n(Cc2ccccc2)c1C | > 100 µM (inactive) | > 100 µM (inactive) | > 100 µM (inactive) | > 100 µM (inactive) | > 100 µM (inactive) | > 100 µM (inactive) | > 100 µM (inactive) | > 100 µM (inactive) | > 100 µM (inactive) | > 100 µM (inactive) | > 100 µM (inactive) | > 100 µM (inactive) | > 100 µM (inactive) | > 100 µM (inactive) | > 100 µM (inactive) | 40.2 µM (inactive) | – | – | – | –
CC(=O)O[C@@]12CO[C@@H]1C[C@@H](O)[C@@]1(C)C(=O)[C@H](O)C3=C(C)[C@@H](OC(=O)[C@H](O)[C@@H](NC(=O)c4ccccc4)c4ccccc4)C[C@@](O)([C@@H](OC(=O)c4ccccc4)C12)C3(C)C (some centres undefined) | 0.0134 µM (active) | 0.222 µM (active) | 24.7 µM (inactive) | 1.82 µM (inactive) | < 0.01 µM (active) | 2.77 µM (inactive) | – | 0.705 µM (active) | < 0.01 µM (active) | < 0.0114 µM (active) | 0.0218 µM (active) | < 0.01 µM (active) | 0.0156 µM (active) | 4.51 µM (inactive) | < 0.0162 µM (active) | < 0.01 µM (active) | < 0.01 µM (active) | 0.0243 µM (active) | 0.0272 µM (active) | < 0.01 µM (active)
CCCNC(=O)C(C)(Cl)C(=O)c1ccccc1O (centres undefined) | > 100 µM (inactive) | > 100 µM (inactive) | > 100 µM (inactive) | > 100 µM (inactive) | > 100 µM (inactive) | > 100 µM (inactive) | > 100 µM (inactive) | > 100 µM (inactive) | > 100 µM (inactive) | > 100 µM (inactive) | > 100 µM (inactive) | > 100 µM (inactive) | > 100 µM (inactive) | > 100 µM (inactive) | > 100 µM (inactive) | > 100 µM (inactive) | – | – | – | –
C=CCc1cc(-c2cc(CC=C)c(O)c(CN(CCCl)CCCl)c2)cc(CN(CCCl)CCCl)c1O | 16.6 µM (inactive) | 12.8 µM (inactive) | 17.6 µM (inactive) | 8.22 µM (inactive) | 18.2 µM (inactive) | 7.69 µM (inactive) | 18.7 µM (inactive) | 19.3 µM (inactive) | 12.3 µM (inactive) | 12.2 µM (inactive) | 16.2 µM (inactive) | 11.1 µM (inactive) | 32.8 µM (inactive) | 16.3 µM (inactive) | 15.2 µM (inactive) | 2.52 µM (inactive) | 37 µM (inactive) | 14.3 µM (inactive) | 8.55 µM (inactive) | 15.4 µM (inactive)
CC(C)N(C(=O)C12C3C4C1(I)C1C2C3(I)C41C(=O)N(C(C)C)C(C)C)C(C)C (centres undefined) | > 100 µM (inactive) | > 100 µM (inactive) | > 58.5 µM (inactive) | > 100 µM (inactive) | > 43.2 µM (inactive) | > 100 µM (inactive) | > 100 µM (inactive) | > 100 µM (inactive) | > 39.2 µM (inactive) | > 43.9 µM (inactive) | > 100 µM (inactive) | > 100 µM (inactive) | > 43.4 µM (inactive) | > 100 µM (inactive) | > 100 µM (inactive) | > 100 µM (inactive) | – | – | – | –
O=C1NC(=O)C(C(=O)C(=O)Nc2cccc(C(F)(F)F)c2)C(=O)N1 | > 100 µM (inactive) | > 100 µM (inactive) | > 100 µM (inactive) | > 100 µM (inactive) | > 100 µM (inactive) | > 100 µM (inactive) | > 100 µM (inactive) | > 100 µM (inactive) | > 100 µM (inactive) | > 100 µM (inactive) | > 100 µM (inactive) | > 100 µM (inactive) | > 100 µM (inactive) | > 100 µM (inactive) | > 100 µM (inactive) | > 100 µM (inactive) | – | – | – | –

Reference: ChEMBL document CHEMBL1201862, “PubChem BioAssay data set” (2004)
